# Source: US9371335B2, “Spirothienopyran-piperidine derivatives as ORL-1 receptor antagonists for their use in the treatment of alcohol dependence and abuse” (Eli Lilly and Company, priority 2011, dated 2016)
# “And” between values parts separate entries of the source, which are not always exact repeats. Equal entries are not always repeated.
# Assays:
# P rats = assay: Free-choice ethanol self-administration in P rats; format: in vivo, rat; settings: for Mean EtOH Consumed in g/kg (Drug-treated) / Reduction vs. Vehicle (EtOH consumed): P rats, 12 hr
# Source text: Free-Choice Ethanol Self-Administration in Alcohol-Preferring Rats: P Rats:
# In this procedure (modified from Rodd-Henricks Z A, McKinzie D L, Shaikh S R, Murphy J M, McBride W J, Lumeng L and Li T K (2000) Alcohol deprivation effect is prolonged in the alcohol preferring (P) rat after repeated deprivations. Alcohol Clin Exp Res 24:8-16), female P rats are obtained from a private colony (Taconic, Germantown, N.Y.), individually-housed with food, 15% ethanol (v/v, in water), and water available ad libitum, and maintained on a 12 hr. light/dark cycle (lights off at 16:00). The chambers are equipped with a force transduction system (TSE Systems, Bad Homburg, Germany) attached to the ethanol, water, and food receptacles to enable continuous monitoring of food and liquid consumption. Rats voluntarily consume 15% ethanol with a mean daily intake of roughly 5 g/kg for several months prior to drug testing. Rats are treated orally with vehicle or test compounds in the dose range of 3, 10, or 30 mg/kg (3 mL/kg dose volume, dissolved in a vehicle consisting of 20% Captisol® in 25 mM phosphate buffer at pH=2), or naltrexone (10 mg/kg, 1 mL/kg dose volume, dissolved in water) immediately prior to the onset of the dark cycle, using a within-subjects, crossover design (3-4 day washout between subsequent doses). In a separate experiment, rats receive oral administration of vehicle followed by 4 daily oral doses of vehicle or 30 mg/kg test compound immediately prior to the onset of the dark cycle, using a between-subjects design.
# [1] = test system: Alcohol-Preferring (P) rats; assay: Operant ethanol self-administration in P rats (progressive ratio schedule); format: in vivo, rat; settings: female P rats, 10 mg/kg oral
# Source text: Operant Self-Administration in P rats:
# Female P rats are obtained and pair-housed from a private colony (Taconic, Germantown, N.Y.). In order to reduce novelty-induced avoidance of ethanol, the water bottle on the homecage is replaced with a bottle containing 15% ethanol in water (v/v, in water) for two days prior to operant training. Throughout the rest of the experiment, rats receive ad libitum access to water and standard laboratory chow, with no further access to ethanol in the homecage.
# Rats are trained to press a lever for ethanol reinforcement in daily 30-min sessions conducted in standard rat operant chambers contained within sound-attenuating chambers (MED Associates, Inc., St. Albans, Vt.). The chambers consist of two stainless steel and two clear Plexiglas walls. The floor grid of the operant chambers consists of 0.5 cm diameter stainless steel bars placed approximately 1.5 cm apart. Each operant chamber contains two retractable operant levers located approximately 6 cm above the grid floor and 13 cm apart. A recessed trough is located in the space between the levers, through which a dipper cup (0.1 mL capacity) is raised to deliver response-contingent ethanol (15%, v/v, in water). Upon a reinforced response, a stimulus light is illuminated above the lever on which the response was made throughout the 4-sec dipper cup access. Operation of the stimuli and behavioral responses are controlled and recorded by personal computer for offline analysis (MED Associates, Inc., St. Albans, Vt.).
# During operant training, responses on either lever are considered correct responses and are rewarded with 0.1 mL ethanol reinforcement. […] Once stable baseline responding is reached on an FR-1 schedule of reinforcement, the response contingency is increased to FR-2 and then again to FR-3 so that 3 lever presses are required for each reinforcement. […] Specifically, the response requirement is increased as follows: all rats begin each session at an FR-1 schedule of reinforcement; after three reinforcements, the schedule is increased to FR-2; after three reinforcements at that level, the schedule is increased by two to FR-4; after three reinforcements, the schedule is increased by two to FR-6; and so on (see for e.g. Oster S M, Toalston J E, Kuc K A, Pommer T J, Murphy J M, Lumeng L, Bell R L, McBride W J and Rodd Z A (2006) Effects of multiple alcohol deprivations on operant ethanol self-administration by high-alcohol-drinking replicate rat lines. Alcohol 38:155-164). Each session lasts a total of 30 min, after which, all stimuli are turned off and levers are retracted. […] The amount of ethanol consumed is calculated from the number of active lever presses, and converted into g/kg EtOH consumed. Rats receive oral administration of vehicle or test compound in the dose range of 3, 10, or 30 mg/kg (3 mL/kg dose volume, dissolved in a vehicle consisting of 20% Captisol® in 25 mM phosphate buffer at pH=2), or the nonselective opioid receptor antagonist naltrexone (10 mg/kg) as a positive control, 60 min. prior to the session, using a within-subjects, crossover design (3-4 day washout between subsequent doses). On a separate occasion, rats receive oral administration of vehicle or 30 mg/kg test compound (1 mL/kg dose volume, dissolved in a vehicle consisting of 20% Captisol® in 25 mM phosphate buffer), 30 min prior to the session, using a crossover design.
SMILES,Mean EtOH Consumed in g/kg (Drug-treated) (P rats; 3 mg/kg oral),Reduction vs. Vehicle (EtOH consumed) (P rats; 3 mg/kg oral),Mean EtOH Consumed in g/kg (Drug-treated) (P rats; 10 mg/kg oral),Reduction vs. Vehicle (EtOH consumed) (P rats; 10 mg/kg oral),Mean EtOH Consumed in g/kg (Drug-treated) (P rats; 30 mg/kg oral),Reduction vs. Vehicle (EtOH consumed) (P rats; 30 mg/kg oral),"ethanol self-administration (P rats; free-choice access, P rats and msP rats, result in words)",Reduction vs. Vehicle (lever presses) [1],Mean Number of Lever Presses (Drug-treated) ([1]; 30-min progressive ratio session),"Mean EtOH Consumed in g/kg (Drug-treated) (P rats; 10 mg/kg oral, 10 mg/kg)","Reduction vs. Vehicle (EtOH consumed) (P rats; 10 mg/kg oral, 10 mg/kg)"
"Cc1nn(-c2c(F)cccc2F)cc1CN1CCC2(CC1)OCC(F)(F)c1cc(Cl)sc12 [Compound 5, 2-chloro-1′-[[l-(2,6-difluorophenyl)-3-methyl-pyrazol-4-yl]methyl]-4,4-difluoro-spiro[5H-thieno[2,3-c]pyran-7,4′-piperidine]]",4.39 g/kg,15.0%,4.05 g/kg,21.5%,3.74 g/kg,27.6%,significantly reduce ethanol self-administration,,,,
"O=C1CC[C@@]2(O)[C@H]3Cc4ccc(O)c5c4[C@@]2(CCN3CC2CC2)[C@H]1O5 [naltrexone, reference compound]",,,,,,,,75.4%,106.33,3.30 g/kg and 2.83 g/kg and 3.31 g/kg,30.2% and 45.0% and 36.0%
